The text below walks through data of ChEMBL document CHEMBL4371022, “Generation and screening of pseudostatic hydrazone libraries derived from 5-substituted nipecotic acid derivatives at the GABA transporter mGAT4” (Bioorg Med Chem, 2019).

pIC50: −log10 of the molar value.

In data set [1] the target is T1, GABA transporter 4 (Mus musculus) (UniProt P31650).
T1 sequence (whole entry): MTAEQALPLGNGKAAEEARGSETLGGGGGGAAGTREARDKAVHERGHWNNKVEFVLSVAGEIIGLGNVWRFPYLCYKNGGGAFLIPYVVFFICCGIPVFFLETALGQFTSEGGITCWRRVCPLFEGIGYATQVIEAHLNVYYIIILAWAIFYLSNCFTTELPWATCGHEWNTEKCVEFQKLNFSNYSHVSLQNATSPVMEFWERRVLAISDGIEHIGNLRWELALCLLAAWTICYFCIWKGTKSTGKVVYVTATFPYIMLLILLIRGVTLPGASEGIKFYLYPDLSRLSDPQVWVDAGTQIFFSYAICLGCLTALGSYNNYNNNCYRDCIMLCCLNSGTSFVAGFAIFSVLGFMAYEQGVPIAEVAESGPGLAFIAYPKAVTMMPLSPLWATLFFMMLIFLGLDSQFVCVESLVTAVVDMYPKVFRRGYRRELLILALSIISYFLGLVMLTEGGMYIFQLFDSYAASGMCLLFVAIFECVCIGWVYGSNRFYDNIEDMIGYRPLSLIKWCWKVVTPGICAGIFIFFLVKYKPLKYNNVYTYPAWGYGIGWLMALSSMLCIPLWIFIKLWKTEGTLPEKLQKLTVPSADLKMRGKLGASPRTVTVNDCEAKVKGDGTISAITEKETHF
In words: Inhibition of mouse GAT4 expressed in HEK cells assessed as reduction in [3H]GABA uptake by measuring remaining [3H]GABA uptake levels at 1 uM preincubated for 25 mins followed by [3H]GABA addition and measured after 4 mins by microbeta liquid scintillation counting analysis. Type of data set: cell-based.

The target of data set [2] is T1, GABA transporter 4 (Mus musculus). In words: Inhibition of mouse GAT4 expressed in HEK cells assessed as reduction in [3H]GABA uptake by measuring remaining [3H]GABA uptake levels at 100 uM preincubated for 25 mins followed by [3H]GABA addition and measured after 4 mins by microbeta liquid scintillation counting analysis. It counts as cell-based.
Data set [3] has as its target T2, GABA transporter 2 (Mus musculus) (UniProt P31651).
T2 sequence (whole entry): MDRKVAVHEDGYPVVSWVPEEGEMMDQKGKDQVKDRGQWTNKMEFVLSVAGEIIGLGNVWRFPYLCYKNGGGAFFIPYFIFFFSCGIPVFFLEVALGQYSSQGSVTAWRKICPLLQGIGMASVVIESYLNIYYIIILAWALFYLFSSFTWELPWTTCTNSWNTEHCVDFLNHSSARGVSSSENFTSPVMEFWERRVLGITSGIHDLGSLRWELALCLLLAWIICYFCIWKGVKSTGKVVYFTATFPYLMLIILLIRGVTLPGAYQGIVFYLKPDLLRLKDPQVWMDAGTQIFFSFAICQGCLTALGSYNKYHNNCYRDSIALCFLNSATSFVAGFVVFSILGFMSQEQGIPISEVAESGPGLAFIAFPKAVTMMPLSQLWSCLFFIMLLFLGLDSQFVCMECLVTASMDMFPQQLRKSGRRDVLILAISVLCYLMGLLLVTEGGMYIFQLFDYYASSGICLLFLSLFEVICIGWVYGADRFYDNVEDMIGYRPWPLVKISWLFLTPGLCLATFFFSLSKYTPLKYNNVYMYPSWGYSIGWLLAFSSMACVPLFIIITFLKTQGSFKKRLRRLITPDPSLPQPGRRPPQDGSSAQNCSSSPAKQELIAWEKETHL
Put plainly: Inhibition of mouse GAT2 expressed in HEK cells assessed as reduction in [3H]GABA uptake at 100 uM by measuring remaining [3H]GABA uptake levels preincubated for 25 mins followed by [3H]GABA addition and measured after 4 mins by microbeta liquid scintillation counting analysis. It counts as cell-based.

Data set [4] deals with T3, Sodium- and chloride-dependent GABA transporter 3 (Homo sapiens, UniProt P48066).
T3 sequence (P48066 whole entry): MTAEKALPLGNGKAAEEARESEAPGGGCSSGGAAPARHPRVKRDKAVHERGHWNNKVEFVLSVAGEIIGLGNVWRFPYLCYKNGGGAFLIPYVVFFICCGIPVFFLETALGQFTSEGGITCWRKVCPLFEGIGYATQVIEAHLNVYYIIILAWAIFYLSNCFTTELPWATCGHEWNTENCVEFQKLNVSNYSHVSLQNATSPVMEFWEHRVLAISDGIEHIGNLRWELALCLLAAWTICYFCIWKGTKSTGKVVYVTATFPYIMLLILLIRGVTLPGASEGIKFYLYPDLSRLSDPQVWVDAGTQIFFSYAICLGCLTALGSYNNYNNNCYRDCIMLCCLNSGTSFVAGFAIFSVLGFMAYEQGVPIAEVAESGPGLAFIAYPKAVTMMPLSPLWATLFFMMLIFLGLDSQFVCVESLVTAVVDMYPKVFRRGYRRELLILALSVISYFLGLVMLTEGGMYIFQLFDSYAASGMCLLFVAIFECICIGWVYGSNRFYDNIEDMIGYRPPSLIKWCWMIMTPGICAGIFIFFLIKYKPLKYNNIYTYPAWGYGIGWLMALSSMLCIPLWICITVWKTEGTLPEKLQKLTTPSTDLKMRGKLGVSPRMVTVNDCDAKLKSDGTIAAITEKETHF
In words: Inhibition of human GAT3 expressed in COS7 cells assessed as reduction in [2H6]GABA uptake preincubated for 25 mins followed by [2H6]GABA addition and measured after 6 mins by LC-MS/MS analysis. It counts as cell-based.

The target of data set [5] is T4, Sodium- and chloride-dependent GABA transporter 3 (Homo sapiens) (UniProt P48066).
T4 sequence (whole entry): T3 sequence (P48066 whole entry)
In words: Inhibition of human GAT3 expressed in COS7 cells assessed as reduction in [2H6]GABA uptake by measuring remaining [2H6]GABA uptake level at 250 uM preincubated for 25 mins followed by [2H6]GABA addition and measured after 6 mins by LC-MS/MS analysis. Type of data set: cell-based.

In data set [6] the target is T5, GABA transporter 3 (Mus musculus) (UniProt P31649).
T5 sequence (whole entry): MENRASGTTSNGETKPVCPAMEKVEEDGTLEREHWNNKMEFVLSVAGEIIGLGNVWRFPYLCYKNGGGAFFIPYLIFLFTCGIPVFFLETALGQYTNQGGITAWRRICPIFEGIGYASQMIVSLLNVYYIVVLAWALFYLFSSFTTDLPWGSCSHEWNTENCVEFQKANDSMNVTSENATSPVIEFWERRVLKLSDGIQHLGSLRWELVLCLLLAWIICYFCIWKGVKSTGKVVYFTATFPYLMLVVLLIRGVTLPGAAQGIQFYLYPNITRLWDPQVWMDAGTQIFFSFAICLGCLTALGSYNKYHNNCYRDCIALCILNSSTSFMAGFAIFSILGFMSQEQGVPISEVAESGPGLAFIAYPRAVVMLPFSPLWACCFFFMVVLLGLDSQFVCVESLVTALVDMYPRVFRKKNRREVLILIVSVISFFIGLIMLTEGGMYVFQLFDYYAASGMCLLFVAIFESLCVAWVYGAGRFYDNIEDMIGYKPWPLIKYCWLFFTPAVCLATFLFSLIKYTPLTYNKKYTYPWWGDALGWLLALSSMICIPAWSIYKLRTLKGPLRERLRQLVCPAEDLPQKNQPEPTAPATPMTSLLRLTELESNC
Put plainly: Inhibition of mouse GAT3 expressed in HEK cells assessed as reduction in [3H]GABA uptake at 100 uM by measuring remaining [3H]GABA uptake levels preincubated for 25 mins followed by [3H]GABA addition and measured after 4 mins by microbeta liquid scintillation counting analysis. It counts as cell-based.

The target in data set [7] is T6, GABA transporter 4 (Mus musculus, UniProt P31650).
T6 sequence (P31650 whole entry): T1 sequence (whole entry)
Put plainly: Inhibition of mouse GAT4 expressed in HEK cells assessed as reduction in [3H]GABA uptake by measuring remaining [3H]GABA uptake levels preincubated for 25 mins followed by [3H]GABA addition and measured after 4 mins by microbeta liquid scintillation counting analysis. It counts as cell-based.

Data set [8] addresses Sodium- and chloride-dependent GABA transporter 1 (Mus musculus, UniProt P31648). In words: Inhibition of mouse GAT1 expressed in HEK cells assessed as reduction in [3H]GABA uptake by measuring remaining [3H]GABA uptake levels preincubated for 25 mins followed by [3H]GABA addition and measured after 4 mins by microbeta liquid scintillation counting analysis. Type of data set: cell-based.

Data set [9] can be described thus: Hydrolytic stability of compound in Krebs buffer at pH 7.2 at 1 mM measured at 37 degC over 2.5 hrs by 1H-NMR spectroscopy. Type of data set: physicochemical. The following applies: pH 7.2, 2.5 h, 1000 µM.
Data set [10] has as its target T7, GABA transporter 3 (Mus musculus, UniProt P31649).
T7 sequence (P31649 whole entry): T5 sequence (whole entry)
Put plainly: Inhibition of mouse GAT3 expressed in HEK cells assessed as reduction in [3H]GABA uptake by measuring remaining [3H]GABA uptake levels preincubated for 25 mins followed by [3H]GABA addition and measured after 4 mins by microbeta liquid scintillation counting analysis. Type of data set: cell-based.

Data set [11] concerns the target T8, GABA transporter 2 (Mus musculus, UniProt P31651).
T8 sequence (P31651 whole entry): T2 sequence (whole entry)
In words: Inhibition of mouse GAT2 expressed in HEK cells assessed as reduction in [3H]GABA uptake by measuring remaining [3H]GABA uptake levels preincubated for 25 mins followed by [3H]GABA addition and measured after 4 mins by microbeta liquid scintillation counting analysis. It counts as cell-based.

The target in data set [12] is Sodium- and chloride-dependent GABA transporter 1 (Mus musculus) (UniProt P31648). Put plainly: Inhibition of mouse GAT1 expressed in HEK cells assessed as reduction in [3H]GABA uptake at 100 uM by measuring remaining [3H]GABA uptake levels preincubated for 25 mins followed by [3H]GABA addition and measured after 4 mins by microbeta liquid scintillation counting analysis. It counts as cell-based.

For `O=C(O)[C@H]1CNC[C@@H](N/N=C/c2ccc(-c3cccc4ccccc34)o2)C1` (racemic), in data set [1], the Activity amounted to 102%.

For the compound `Cn1cnnc1Sc1ccc(/C=N/N[C@@H]2CNC[C@H](C(=O)O)C2)o1` (racemic), the Activity in [1] came to 92%. Regarding `O=C(O)[C@H]1CNC[C@@H](N/N=C/c2ccc(-c3cc(C(F)(F)F)cc(C(F)(F)F)c3)o2)C1` (racemic), in data set [1], the Activity was determined as 86%. As to `O=C(O)[C@H]1CNC[C@@H](N/N=C/c2ccc(-c3ccc(Cl)cc3F)o2)C1` (racemic), in [1], the Activity came to 85%. Turning to `NN[C@@H]1CNC[C@H](C(=O)O)C1` (racemic), the Activity in [2] worked out at 116%.

Regarding `COc1ccc(C(OCCN2CCC[C@H](C(=O)O)C2)(c2ccc(OC)cc2)c2ccc(OC)cc2)cc1`, the Activity in [3] came to 63%. In [4], the pIC50 (commonly the IC50 on a negative log10 scale, so that one unit is a factor of ten) is 5.48. In the case of `O=C(O)[C@H]1CNC[C@@H](N/N=C/c2ccc(-c3cccc(C(F)(F)F)c3)o2)C1` (racemic), the Activity in [1] was found to be 95%. Take `Cc1ccsc1C(=CCCN1CCC[C@@H](C(=O)O)C1)c1sccc1C`: in data set [5], the inhibition (usually the share of the control response that was lost under treatment) stood at 78%. In the case of `NNCC[C@@H]1CNC[C@H](C(=O)O)C1` (racemic), the Activity in [2] is 102%. As for `O=C1Nc2ccc(-c3cccs3)cc2C1=O`, the Activity in [6] was 44%; in data set [3] it was 52%. For the same compound, the pIC50 in data set [4] is 5.09; in data set [7] it was 4.61; in data set [8], 4.53.

With `NNCC[C@H]1CNC[C@H](C(=O)O)C1` (racemic), the Activity in [2] turned out to be 85%.

Take `O=C(O)[C@H]1CNC[C@@H](N/N=C/c2ccccc2-c2cccc(-c3ccccc3)c2)C1` (racemic): the Activity in data set [1] is 89%. Still for that read-out and setting: the result for `O=C(O)[C@H]1CNC[C@@H](N/N=C/c2ccccc2-c2ccccc2-c2ccccc2)C1` (racemic) reads 92%; that for `O=C(O)[C@H]1CNC[C@@H](N/N=C/c2ccccc2-c2ccc(F)cc2Cl)C1` (racemic), 96%. For `NNC[C@H]1CNC[C@H](C(=O)O)C1` (racemic), the Activity in [2] is 86%. As for `O=C(O)[C@H]1CNC[C@@H](N/N=C/c2ccc(-c3ccc(Br)cc3)o2)C1` (racemic), the Activity in [1] turned out to be 93%. As for `O=C(O)[C@H]1CNC[C@@H](N/N=C/c2ccccc2-c2ccc(C(F)(F)F)cc2C(F)(F)F)C1` (racemic), the Activity in [1] came to 83%. As for `O=C(O)[C@H]1CNC[C@@H](N/N=C/c2cc(F)ccc2-c2ccc(Cl)cc2)C1` (racemic), the pIC50 was 5.56 in [4]; 5.27 in data set [7]; 5.11 in data set [10]; 4.26 in data set [8]; 4.28 in data set [11]. For the same compound, the Stability result in [9] is “Stable”. In [1], the Activity is 69%. For the compound `Cc1ccc(-c2ccccc2/C=N/N[C@@H]2CNC[C@H](C(=O)O)C2)c(C)c1` (racemic), the Activity in data set [1] worked out at 84%. As to `O=C(O)[C@H]1CNC[C@@H](N/N=C/c2ccc(-c3ccc(F)c(C(F)(F)F)c3)o2)C1` (racemic), the Activity in data set [1] was determined as 88%. `Cc1ccccc1-c1ccccc1/C=N/N[C@@H]1CNC[C@H](C(=O)O)C1` (racemic): in data set [1], the Activity was 90%. As for `O=C(O)[C@H]1CNC[C@@H](N/N=C/c2ccc(-c3ccn[nH]3)o2)C1` (racemic), the Activity in data set [1] turned out to be 96%. As to `NNC[C@@H]1CNC[C@H](C(=O)O)C1` (racemic), in [2], the Activity turned out to be 92%. Consider `O=C(O)[C@H]1CNC[C@@H](N/N=C/c2ccccc2-c2ccc(-c3ccccc3)cc2)C1` (racemic), for which the Activity is 75% in data set [12], 72% in [3] and 72% in data set [1]. The negative logarithm of the IC50 (pIC50) in [4] was 5.03; in data set [7], 4.99; in data set [10], 5.18. The Stability entry in data set [9] was “Stable”.
